Entries after “also recorded” stand apart in the source; their conditions may differ.
Test system: patients with relapsed/refractory T Cell Lymphoma
Test: Safety assessment (adverse events per CTCAE v4.03, DLT/MTD) in phase I/Ib study
Assay type: in vivo, human
Procedure: Protocol defined hematological or non-hematological toxicity was considered dose-limiting if it occurred during the first cycle (within the first 28 d) and was considered related to Tenalisib. Hematological DLTs was defined as Grade 4 anemia; Grade 4 neutropenia for >7 days, or Grade ≥3 febrile neutropenia with fever >38.5 °C [101 °F]; Grade 4 thrombocytopenia for >7 days, or Grade ≥3 thrombocytopenia associated with Grade >2 bleeding.
Safety assessment included adverse event (AE) and serious adverse events (SAE) as per Common Terminology Criteria for Adverse Events (CTCAE), Version 4.03. During dose escalation, safety assessments were performed at weekly intervals during Cycle 1 and Cycle 2 and at two weekly intervals during Cycle 3 and 4. After completion of Cycle 4, safety assessments were performed on Day 1 of each subsequent cycle. In dose expansion phase, all safety assessments were performed on Day 1 of each cycle.

[1] = Relationship-Related, Dose Escalation (N = 19)
[2] = Relationship-Related, Dose Expansion (N = 39)
[3] = Relationship-Related, Total (N = 58)
[4] = Relationship-all, Dose Escalation (N = 19)
[5] = Relationship-all, Dose Expansion (N = 39)

Structure (SMILES): CC[C@H](Nc1ncnc2[nH]cnc12)c1oc2ccccc2c(=O)c1-c1cccc(F)c1 [Tenalisib]
- Maximum tolerated dose (MTD) (BID, fasting): 800 mg
- Number of related AEs (CTCL patients): 208
- Number of related ≥Grade 3 AEs (CTCL patients): 25
- Patients with related AEs (CTCL patients): 27 (90%) n (%)
- Patients with related ≥Grade 3 AEs (CTCL patients): 12 (40%) n (%)
- Dose-limiting toxicities (DLT) (Cohort 4, 800 mg BID (fed)): Two dose-limiting toxicities; also recorded: Two DLTs (Grade 3 ALT increased and Grade 3 erythematous rash)
- Number of related AEs (PTCL patients): 51
- Neutropenia: patients with event [1]: 2 (10.5%) n (%)
- Pruritus: count of events [1]: 1
- Pruritus: patients with event [1]: 1 (5.3%) n (%)
- Pyrexia: patients with event [1]: 0 n (%)
- Vomiting: count of events [1]: 3
- Vomiting: patients with event [1]: 2 (10.5%) n (%)
- Alanine aminotransferase increased: count of events [2]: 18
- Alanine aminotransferase increased: patients with event [2]: 12 (30.8%) n (%)
- Anemia: count of events [2]: 2
- Anemia: patients with event [2]: 2 (5.1%) n (%)
- Aspartate aminotransferase increased: count of events [2]: 20
- Aspartate aminotransferase increased: patients with event [2]: 12 (30.8%) n (%)
- Blood alkaline phosphatase increased: count of events [2]: 2
- Blood alkaline phosphatase increased: patients with event [2]: 2 (5.1%) n (%)
- Blood thyroid stimulating hormone increased: count of events [2]: 3
- Blood thyroid stimulating hormone increased: patients with event [2]: 2 (5.1%) n (%)
- Dehydration: count of events [2]: 3
- Dehydration: patients with event [2]: 3 (7.7%) n (%)
- Diarrhea: count of events [2]: 10
- Diarrhea: patients with event [2]: 9 (23.1%) n (%)
- Dizziness: count of events [2]: 3
- Dizziness: patients with event [2]: 3 (7.7%) n (%)
- Dyspepsia: count of events [2]: 2
- Dyspepsia: patients with event [2]: 2 (5.1%) n (%)
- Erythema: count of events [2]: 2
- Erythema: patients with event [2]: 2 (5.1%) n (%)
- Fatigue: count of events [2]: 7
- Fatigue: patients with event [2]: 7 (17.9%) n (%)
- Gamma-glutamyltransferase increased: count of events [2]: 7
- Gamma-glutamyltransferase increased: patients with event [2]: 5 (12.8%) n (%)
- Headache: count of events [2]: 2
- Headache: patients with event [2]: 2 (5.1%) n (%)
- Muscle spasms: count of events [2]: 3
- Muscle spasms: patients with event [2]: 3 (7.7%) n (%)
- Nausea: count of events [2]: 2
- Nausea: patients with event [2]: 2 (5.1%) n (%)
- Neutropenia: count of events [2]: 1
- Neutropenia: patients with event [2]: 1 (2.6%) n (%)
- Pruritus: count of events [2]: 3
- Pruritus: patients with event [2]: 3 (7.7%) n (%)
- Pyrexia: count of events [2]: 5
- Pyrexia: patients with event [2]: 3 (7.7%) n (%)
- Vomiting: count of events [2]: 1
- Vomiting: patients with event [2]: 1 (2.6%) n (%)
- Alanine aminotransferase increased: count of events [3]: 31
- Alanine aminotransferase increased: patients with event [3]: 18 (31.0%) n (%)
- Anemia: count of events [3]: 3
- Anemia: patients with event [3]: 3 (5.2%) n (%)
- Aspartate aminotransferase increased: count of events [3]: 35
- Aspartate aminotransferase increased: patients with event [3]: 18 (31.0%) n (%)
- Blood alkaline phosphatase increased: count of events [3]: 3
- Blood alkaline phosphatase increased: patients with event [3]: 3 (5.2%) n (%)
- Blood thyroid stimulating hormone increased: count of events [3]: 5
- Blood thyroid stimulating hormone increased: patients with event [3]: 4 (6.9%) n (%)
- Dehydration: count of events [3]: 4
- Dehydration: patients with event [3]: 4 (6.9%) n (%)
- Diarrhea: count of events [3]: 14
- Diarrhea: patients with event [3]: 12 (20.7%) n (%)
- Dizziness: count of events [3]: 5
- Dizziness: patients with event [3]: 5 (8.6%) n (%)
- Dyspepsia: count of events [3]: 3
- Dyspepsia: patients with event [3]: 3 (5.2%) n (%)
- Erythema: count of events [3]: 3
- Erythema: patients with event [3]: 3 (5.2%) n (%)
- Fatigue: count of events [3]: 9
- Fatigue: patients with event [3]: 9 (15.5%) n (%)
- Gamma-glutamyltransferase increased: count of events [3]: 9
- Gamma-glutamyltransferase increased: patients with event [3]: 7 (12.1%) n (%)
- Headache: count of events [3]: 6
- Headache: patients with event [3]: 5 (8.6%) n (%)
- Muscle spasms: count of events [3]: 6
- Muscle spasms: patients with event [3]: 5 (8.6%) n (%)
- Nausea: count of events [3]: 4
- Nausea: patients with event [3]: 3 (5.2%) n (%)
- Neutropenia: count of events [3]: 3
- Neutropenia: patients with event [3]: 3 (5.2%) n (%)
- Pruritus: count of events [3]: 4
- Pruritus: patients with event [3]: 4 (6.9%) n (%)
- Pyrexia: count of events [3]: 5
- Pyrexia: patients with event [3]: 3 (5.2%) n (%)
- Vomiting: count of events [3]: 4
- Vomiting: patients with event [3]: 3 (5.2%) n (%)
- Grade 3/4 Alanine aminotransferase increased: count of events (Relationship-all): 5
- Grade 3/4 Alanine aminotransferase increased: patients with event (Relationship-all): 5 (26.3%) n (%)
- Grade 3/4 Anemia: count of events (Relationship-all): 2
- Grade 3/4 Anemia: patients with event (Relationship-all): 2 (10.5%) n (%)
- Grade 3/4 Aspartate aminotransferase increased: count of events (Relationship-all): 4
- Grade 3/4 Aspartate aminotransferase increased: patients with event (Relationship-all): 4 (21.1%) n (%)
- Grade 3/4 Fatigue: count of events (Relationship-all): 1
- Grade 3/4 Fatigue: patients with event (Relationship-all): 1 (5.3%) n (%)
- Grade 3/4 Hyponatremia: count of events (Relationship-all): 2
- Grade 3/4 Hyponatremia: patients with event (Relationship-all): 2 (10.5%) n (%)
- Grade 3/4 Neutropenia: count of events (Relationship-all): 2
- Grade 3/4 Neutropenia: patients with event (Relationship-all): 2 (10.5%) n (%)
- Grade 3/4 Thrombocytopenia: count of events (Relationship-all): 1
- Grade 3/4 Thrombocytopenia: patients with event (Relationship-all): 1 (5.3%) n (%)
- Abdominal pain: count of events [4]: 3
- Abdominal pain: patients with event [4]: 3 (15.8%) n (%)
- Alanine aminotransferase increased: count of events [4]: 13
- Alanine aminotransferase increased: patients with event [4]: 6 (31.6%) n (%)
- Anemia: count of events [4]: 6
- Anemia: patients with event [4]: 3 (15.8%) n (%)
- Aspartate aminotransferase increased: count of events [4]: 16
- Aspartate aminotransferase increased: patients with event [4]: 7 (36.8%) n (%)
- Blood creatinine increased: count of events [4]: 1
- Vomiting: count of events [4]: 5
- Vomiting: patients with event [4]: 4 (21.1%) n (%)
- Abdominal pain: count of events [5]: 6
- Abdominal pain: patients with event [5]: 5 (12.8%) n (%)
- Alanine aminotransferase increased: count of events [5]: 20
- Alanine aminotransferase increased: patients with event [5]: 14 (35.9%) n (%)
- Anemia: count of events [5]: 10
- Anemia: patients with event [5]: 6 (15.4%) n (%)
- Aspartate aminotransferase increased: count of events [5]: 21
- Aspartate aminotransferase increased: patients with event [5]: 14 (35.9%) n (%)
- Blood creatinine increased: count of events [5]: 6
- Blood creatinine increased: patients with event [5]: 6 (15.4%) n (%)
- Blood thyroid stimulating hormone increased: count of events [5]: 5
- Blood thyroid stimulating hormone increased: patients with event [5]: 4 (10.3%) n (%)
- Constipation: count of events [5]: 5
- Constipation: patients with event [5]: 5 (12.8%) n (%)
- Cough: count of events [5]: 9
- Cough: patients with event [5]: 7 (17.9%) n (%)
- Decreased appetite: count of events [5]: 8
- Decreased appetite: patients with event [5]: 7 (17.9%) n (%)
- Dehydration: count of events [5]: 13
- Dehydration: patients with event [5]: 10 (25.6%) n (%)
- Diarrhea: count of events [5]: 19
- Diarrhea: patients with event [5]: 14 (35.9%) n (%)
- Dizziness: count of events [5]: 9
- Dizziness: patients with event [5]: 7 (17.9%) n (%)
- Dry skin: count of events [5]: 6
- Dry skin: patients with event [5]: 5 (12.8%) n (%)
- Dyspnea: count of events [5]: 2
- Dyspnea: patients with event [5]: 2 (5.1%) n (%)
- Fatigue: count of events [5]: 19
- Fatigue: patients with event [5]: 18 (46.2%) n (%)
- Gamma-glutamyl transferase increased: count of events [5]: 9
- Gamma-glutamyl transferase increased: patients with event [5]: 6 (15.4%) n (%)
- Headache: count of events [5]: 9
- Headache: patients with event [5]: 7 (17.9%) n (%)
- Hypokalemia: count of events [5]: 5
- Hypokalemia: patients with event [5]: 3 (7.7%) n (%)
- Hyponatremia: count of events [5]: 5
- Hyponatremia: patients with event [5]: 4 (10.3%) n (%)
- Insomnia: count of events [5]: 4
- Insomnia: patients with event [5]: 3 (7.7%) n (%)
- Muscle spasms: count of events [5]: 4
- Muscle spasms: patients with event [5]: 4 (10.3%) n (%)
- Nausea: count of events [5]: 9
- Nausea: patients with event [5]: 9 (23.1%) n (%)
- Pruritus: count of events [5]: 5
- Pruritus: patients with event [5]: 5 (12.8%) n (%)
- Psychiatric disorders: count of events [5]: 12
- Psychiatric disorders: patients with event [5]: 7 (17.9%) n (%)
- Pyrexia: count of events [5]: 17
